Data on 21 compounds can be found in patent US7491827B2, “Aryl sulfonamides useful as inhibitors of chemokine receptor activity” (Millennium Pharmaceuticals, Inc., priority 2003, dated 2009).

Some results are limits rather than exact numbers.

T1 sequence (P51685 whole entry): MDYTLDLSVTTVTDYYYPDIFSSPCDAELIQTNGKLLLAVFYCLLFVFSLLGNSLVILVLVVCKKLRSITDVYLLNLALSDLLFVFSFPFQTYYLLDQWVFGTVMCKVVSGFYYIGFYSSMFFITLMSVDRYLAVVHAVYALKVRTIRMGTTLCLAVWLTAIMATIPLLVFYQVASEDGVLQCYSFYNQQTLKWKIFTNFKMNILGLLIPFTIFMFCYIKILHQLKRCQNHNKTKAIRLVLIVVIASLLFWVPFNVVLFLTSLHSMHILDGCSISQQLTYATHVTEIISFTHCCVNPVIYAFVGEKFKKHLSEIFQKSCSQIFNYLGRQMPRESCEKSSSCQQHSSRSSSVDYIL

This assay concerns the target T1, cloned human CCR8 receptor stably expressed in L1.2 cells (Homo sapiens, UniProt P51685).
T1 construct: expressed in transfected cells
The assay can be described thus: whole cell binding screen: inhibition of biotinylated human I309 binding to CCR8 (FMAT 8100 HTS). As to conditions: L1.2/hCCR8 cells, biotinylated human I-309, 10 point concentration response starting at 10 μM; read-out: Ki of compounds to inhibit I-309 binding to CCR8. The text has this:
This whole cell binding screen evaluates the ability of compounds to inhibit biotinlyated human I309 binding to the cloned human CCR8 receptor stably expressed in L1.2 cells. Human CCR8 gene was amplified by PCR using PFU polymerase under standard conditions from human genomic DNA purchased from Stratagene. The PCR primers used were:
The 5′ and 3′ primers contained flanking enzyme sites (Bam Hi and Not 1,respectively), which were used to subclone the gene into pcDNA3.1. […] The CCR8 vector was then transfected into L1.2 cells (murine pre-B cells) by electroporation.
Compounds were screened using the FMAT™ 8100 HTS System (purchased from Applied Biosystems).
A suspension was prepared of L1.2/hCCR8 cells at 4.0×10^5 cells/mL in a binding buffer (Buffer consisting of Hanks Balanced Salt Solution (without phenol red), 10 mM HEPES, 0.1% Fatty Acid Free BSA, 0.02% Sodium Azide).
Dilution series of 10 mM stock concentrations of the test compounds were prepared in DMSO and further diluted into binding buffer defined above) to three times the final assay concentration.
10 point concentration response curve is constructed for each compound, starting at 10 μM (final assay concentration in Binding Buffer). […] The components were mixed in wells by covering the plate with aluminum foil and rotating for 0.5 hours. […] Average fluorescence reported for each concentration was normalized to percent inhibition based on negative (no inhibitor) and positive (100 nM excess unlabeled I309 (R and D Systems)) controls.
As for `Cc1ccccc1C(=O)Nc1ccc(S(=O)(=O)NC2CCN(C(=O)OC(C)(C)C)CC2(C)C)c2ccccc12` (racemic) [Compound A-19, (±)-3,3-Dimethyl-4-[4-(2-methyl-benzoylamino)-naphthalene-0-sulfonylamino]-piperidine-1-carboxylic acid tert-butyl ester], the Ki is under 500 nM. The result for `Cc1ccccc1C(=O)Nc1ccc(S(=O)(=O)N[C@H]2CCN(Cc3ccccc3)C[C@H]2C)c2ccccc12` (racemic) [Compound A-21, (±)-cis-N-[4-(1-Benzyl-3-methyl-piperidin-4-ylsulfamoyl)-naphthalen-1-yl]-2-methyl-benzamide] reads under 1000 nM. As for `Cc1ccccc1C(=O)Nc1ccc(S(=O)(=O)N[C@@H]2CCN(Cc3ccccc3)C[C@H]2C)c2ccccc12` (racemic) [Compound A-23, (±)-trans-N-[4-(1-Benzyl-3-methyl-piperidin-4-ylsulfamoyl)-naphthalen-1-yl]-2-methyl-benzamide], the Ki is under 500 nM.

`Cc1ccccc1C(=O)Nc1ccc(S(=O)(=O)NC2CCN(Cc3ccccc3)CC2(C)C)c2ccccc12` (racemic) [Compound A-24, (±)-N-[4-(1-Benzyl-3,3-dimethyl-piperidin-4-ylsulfamoyl)-naphthalen-1-yl]-2-methyl-benzamide]: the Ki was under 500 nM. To `Cc1ccccc1C(=O)Nc1ccc(S(=O)(=O)NC2[C@@H](C)CN(Cc3ccccc3)C[C@@H]2C)c2ccccc12` (racemic) [Compound A-45, (±)-(cis, trans)-N-[4-(1-Benzyl-3,5-dimethyl-piperidin-4-ylsulfamoyl)-naphthalen-1-yl]-2-methyl-benzamide] belongs under 30000 nM; to `CCOC(=O)[C@@H]1CN(Cc2ccccc2)CC[C@@H]1NS(=O)(=O)c1ccc(NC(=O)c2ccccc2C)c2ccccc12` (racemic) [Compound A-47, (±)-(cis)-1-Benzyl-4-[4-(2-methyl-benzoylamino)-naphthalene-1-sulfonylamino]-piperidine-3-carboxylic acid ethyl ester], under 30000 nM; to `CCOC(=O)[C@@H]1CN(Cc2ccccc2)CC[C@H]1NS(=O)(=O)c1ccc(NC(=O)c2ccccc2C)c2ccccc12` (racemic) [Compound A-48, (±)-(trans)-1-Benzyl-4-[4-(2-methyl-benzoylamino)-naphthalene-1-sulfonylamino]-piperidine-3-carboxylic acid ethyl ester], under 30000 nM. Consider `Cc1ccccc1C(=O)Nc1ccc(S(=O)(=O)NC2CCNCC2(C)C)c2ccccc12` (racemic) [Compound C-11, (±)-N-[4-(3,3-Dimethyl-piperidin-4-ylsulfamoyl)-naphthalen-1-yl]-2-methyl-benzamide], for which the Ki is under 500 nM.

As to `Cc1ccccc1C(=O)Nc1ccc(S(=O)(=O)N[C@H]2CCN(C(=O)OC(C)C)C[C@H]2C)c2ccccc12` (racemic) [Compound C-13, (±)-cis-3-Methyl-4-[4-(2-methyl-benzoylamino)-naphthalene-1-sulfonylamino]-piperidine-1-carboxylic acid isopropyl ester], the inhibitory constant (Ki) was under 500 nM. In the case of `Cc1ccccc1C(=O)Nc1ccc(S(=O)(=O)N[C@H]2CCNC[C@@H]2C)c2ccccc12` (racemic) [Compound C-14, (±)-trans-2-MethylN-[4-(3-methyl-piperidin-4-ylsulfamoyl)-naphthalen-1-yl]-benzamide], the Ki was under 500 nM. The result for `CCNC(=O)N1CC[C@H](NS(=O)(=O)c2ccc(NC(=O)c3ccccc3C)c3ccccc23)[C@@H](C)C1` (racemic) [Compound C-16, (±)-trans-3-Methyl-4-[4-(2-methyl-benzoylanlino)-naphthalene-1-sulfonylamino]-piperidine-1-carboxylic acid ethylaiide] reads under 500 nM; that for `CCOC(=O)N1CC[C@H](NS(=O)(=O)c2ccc(NC(=O)c3ccccc3C)c3ccccc23)[C@@H](C)C1` (racemic) [Compound C-17, (±)-trans-3-Methyl-4-[4-(2-methyl-benzoylamino)-naphthalene-1-sulfonylaminno]-piperidine-1-carboxylic acid ethyl ester], under 500 nM. `Cc1ccccc1C(=O)Nc1ccc(S(=O)(=O)N[C@H]2CCN(C(=O)OC(C)C)C[C@@H]2C)c2ccccc12` (racemic) [Compound C-18, (±)-trans-3-methyl-4-[4-(2-methyl-benzoylalino)-naphthalene-1-sulfonylamino]-piperidine-1-carboxylic acid isopropyl ester]: the Ki is under 500 nM.

For the compound `CCCC(=O)N1CC[C@H](NS(=O)(=O)c2ccc(NC(=O)c3ccccc3C)c3ccccc23)[C@@H](C)C1` (racemic) [Compound C-19, (±)-trans-N-[4-(1-Butyryl-3-methyl-piperidin-4-ylsulfamoyl)-naphthalen-1-yl]-2-methyl-benzamide], the Ki is under 500 nM.

In the case of `CCOC(=O)N1CCC(NS(=O)(=O)c2ccc(NC(=O)c3ccccc3C)c3ccccc23)C(C)(C)C1` (racemic) [Compound C-20, (±)-3,3-Dimethyl-4-[4-(2-methyl-benzoylamino)-naphthalene-1-sulfonylamino]-piperidine-1-carboxylic acid ethyl ester], the Ki was under 500 nM. The result for `CCNC(=O)N1CCC(NS(=O)(=O)c2ccc(NC(=O)c3ccccc3C)c3ccccc23)C(C)(C)C1` (racemic) [Compound C-21, (±)-3,3-Dimethyl-4-[4-(2-methyl-benzoylamino)-naphthalene-1-sulfonylamino]-piperidine-1-carboxylic acid ethylamide] reads under 500 nM. As for `Cc1ccccc1C(=O)Nc1ccc(S(=O)(=O)NC2CCN(C(=O)OC(C)C)CC2(C)C)c2ccccc12` (racemic) [Compound C-22, (±)-3,3-Dimethyl-4-[4-(2-methyl-benzoylamino)-naphthalene-1-sulfonylamino]-piperidine-1-carboxylic acid isopropyl ester], the Ki is under 500 nM. Regarding `CCCC(=O)N1CCC(NS(=O)(=O)c2ccc(NC(=O)c3ccccc3C)c3ccccc23)C(C)(C)C1` (racemic) [Compound C-23, (±)-N-[4-(1-Butyryl-3,3-dimethyl-piperidin-4-ylsulfamoyl)-naphthalen-1-yl]-2-methyl-benzamide], the Ki was under 30000 nM.

With `Cc1ccccc1C(=O)Nc1ccc(S(=O)(=O)N[C@H]2CCNC[C@H]2C)c2ccccc12` (racemic) [Compound C-28, (±)-cis-2-Methyl-N-[4-(3-methyl-piperidin-4-ylsulfamoyl)-naphthalen-1-yl]-benzamide], the Ki was under 1000 nM. To `Cc1ccccc1C(=O)Nc1ccc(S(=O)(=O)N[C@H]2CCN(C(=O)N(C)C)C[C@H]2C)c2ccccc12` (racemic) [Compound C-29, (±)-cis-3-Methyl-4-[4-(2-methyl-benzoylandno)-naphthalene-1-sulfonylamio]-piperidine-1-carboxylic acid dimethylamide] belongs under 500 nM; to `CC(=O)N1CC[C@H](NS(=O)(=O)c2ccc(NC(=O)c3ccccc3C)c3ccccc23)[C@H](C)C1` (racemic) [Compound C-30, (±)-cis-N-[4-(1-Acetl-3-methyl-piperidin-4-ylsulfamoyl)-naphthalen-1-yl]-2-methyl-benzamide], under 500 nM.

Usually Ki stands for a dissociation constant, usually derived from enzyme kinetics or from competition with a known ligand.
